Measured values from patent US10729694B2 (AI Therapeutics, Inc., priority 2015, dated 2020).

Columns and labels:
[1] = system: representative cancer cell line; experiment: Vacuolization and disruption of intracellular trafficking in cells; conditions: live cells treated with 500 nM, 24 h
456 kinases = assay type: binding

SMILES: Cc1cccc(/C=N/Nc2cc(N3CCOCC3)nc(OCCc3ccccn3)n2)c1 [apilimod]
- vacuolization [1]: induces vacuolization
- binding to panel of 456 kinases (456 kinases): did not bind to any of the 456 kinases tested
